Read-outs that look alike come from different tables or passages of the source.

The nature of data set [1]: Solubility of dye (Na salt) in water. It is filed as physicochemical. On the procedure:
Evaluation Method of Solubility of Dye
A Na salt (2 g) of the resulting dye was dissolved in water (10 g), and the dye solution was filtered and concentrated/dried to determine a solubility (g of dye/100 g of water) of the dye.

The nature of data set [2]: AMES test (reverse mutagenicity test), strain TA98, with and without S-9. It is filed as cell-based. The settings on record: read-out: magnification of the total number of the mutant colony to the control. On the procedure: (§1) Regarding specimen solutions containing the trisazo compounds (dyes) of the present invention obtained in Examples 1 to 9 and dyes of Comparative Examples 1 to 3, respectively, the total number of the mutant colony was determined using the strain TA98. When the resulting magnification is not more than 2, it is evaluated as "negative". On the other hand, when the resulting magnification is not less than 2, it is evaluated as "positive".
(§2) In Table 1, the modification in case that no drug-metabolizing active enzyme S-9 is added is shown in the column "-" and the modification in case that a drug-metabolizing active enzyme S-9 is added is shown in the column "+".

The subject of another data set is strain TA98. Described as above. It is filed as cell-based. Particulars: TA98, with and without S9, 20 to 5000 μg/plate. Here is the method: as §1, §2
The mark [3] stands for this setting: s9, TA98, with S9, 313 μg/plate.
Where [4] appears, read: s9, TA98, with S9, 1250 μg/plate.
The mark [5] stands for this setting: s9, TA98, with S9, 5000 μg/plate.
[6] abbreviates: s9, TA98, without S9, 20 μg/plate.
Where [7] appears, read: s9, TA98, without S9, 78 μg/plate.
Where [8] appears, read: s9, TA98, without S9, 313 μg/plate.
Setting [9] is: s9, TA98, without S9, 1250 μg/plate.
Where [10] appears, read: s9, TA98, without S9, 5000 μg/plate.

Take `CCCCc1ccc(N=Nc2c(S(=O)(=O)O)cc3cc(S(=O)(=O)O)c(N=Nc4ccc(C5(c6ccc(N=Nc7ccc(N)cc7O)cc6)CCCCC5)cc4)c(N)c3c2O)cc1` [Example 1]: the “Solubility Dye(g)/water (100 g)” value in data set [1] is recorded as 12 g of dye/100 g of water. In data set [1], the “Solubility Evaluation” value is “.smallcircle. (solubility is within a range from 10 to 15)”. Further, the fold induction in data set [2] (s9, TA98, with S9, 20 μg/plate) was 1.21; in data set [2] (s9, TA98, with S9, 78 μg/plate), 1.03; in data set [2] (setting [3]), 0.9; in data set [2] (setting [4]), 0.63; in data set [2] (setting [5]), 0.69; in data set [2] (setting [6]), 0.91. Also, the fold induction is 0.86 in data set [2] (setting [7]), 0.91 in data set [2] (setting [8]), 0.95 in data set [2] (setting [9]) and 0.5 in data set [2] (setting [10]). Moreover, in the data set on strain TA98, the “AMES Evaluation” value was “Negative (When the resulting magnification is not more than 2, it is evaluated as "negative")”.
Turning to `CCCCc1ccc(N=Nc2c(S(=O)(=O)O)cc3cc(S(=O)(=O)O)c(N=Nc4ccc(C5(c6ccc(N=Nc7ccc(O)cc7O)cc6)CCCCC5)cc4)c(N)c3c2O)cc1` [Example 2], the “Solubility Dye(g)/water (100 g)” value in data set [1] is on record as 15 g of dye/100 g of water. The “Solubility Evaluation” value in data set [1] is “.circleincircle. (solubility is not less than 15)”. Further, the fold induction was 1.09 in data set [2] (s9, TA98, with S9, 20 μg/plate); 1.09 in data set [2] (s9, TA98, with S9, 78 μg/plate); 0.55 in data set [2] (setting [3]); 0.55 in data set [2] (setting [4]); 0.42 in data set [2] (setting [5]); 0.78 in data set [2] (setting [6]). For the same compound, the fold induction in data set [2] (setting [7]) was 0.7; in data set [2] (setting [8]) it was 0.61; in data set [2] (setting [9]) it was 0.39; in data set [2] (setting [10]) it was 0.3. Further, the “AMES Evaluation” value in the data set with strain TA98 was “Negative (When the resulting magnification is not more than 2, it is evaluated as "negative")”.
`CCC(C)c1ccc(N=Nc2c(S(=O)(=O)O)cc3cc(S(=O)(=O)O)c(N=Nc4ccc(C5(c6ccc(N=Nc7ccc(N)cc7O)cc6)CCCCC5)cc4)c(N)c3c2O)cc1` (centres unmarked) [Example 3]: the “Solubility Dye(g)/water (100 g)” value in data set [1] was 12 g of dye/100 g of water. The “Solubility Evaluation” value in data set [1] is listed as “.smallcircle. (solubility is within a range from 10 to 15)”. Further, the fold induction stood at 0.81 in data set [2] (s9, TA98, with S9, 20 μg/plate); 1.31 in data set [2] (s9, TA98, with S9, 78 μg/plate); 1 in data set [2] (setting [3]); 0.56 in data set [2] (setting [4]); 0.69 in data set [2] (setting [5]); 0.81 in data set [2] (setting [6]). For the same compound, the fold induction in data set [2] (setting [7]) amounted to 0.5; in data set [2] (setting [8]), 0.5; in data set [2] (setting [9]), 0.5; in data set [2] (setting [10]), 0.69. Also, the “AMES Evaluation” value in the data set on strain TA98 is recorded as “Negative (When the resulting magnification is not more than 2, it is evaluated as "negative")”.
With `Nc1ccc(N=Nc2ccc(C3(c4ccc(N=Nc5c(S(=O)(=O)O)cc6cc(S(=O)(=O)O)c(N=Nc7ccccc7)c(O)c6c5N)cc4)CCCCC3)cc2)c(O)c1` [Example 4], in data set [1], the “Solubility Dye(g)/water (100 g)” value was 15 g of dye/100 g of water. The “Solubility Evaluation” value in data set [1] is “.circleincircle. (solubility is not less than 15)”. Besides, the fold induction in data set [2] (s9, TA98, with S9, 20 μg/plate) was found to be 1.44; in data set [2] (s9, TA98, with S9, 78 μg/plate), 1.4; in data set [2] (setting [3]), 1.08; in data set [2] (setting [4]), 1.16; in data set [2] (setting [5]) it was 0.96; in data set [2] (setting [6]) it was 1. Moreover, the fold induction in data set [2] (setting [7]) worked out at 0.93; in data set [2] (setting [8]), 1.07; in data set [2] (setting [9]), 0.87; in data set [2] (setting [10]), 0.93. The “AMES Evaluation” value in the data set on strain TA98 is “Negative (When the resulting magnification is not more than 2, it is evaluated as "negative")”.
For the compound `CC(C)c1ccc(N=Nc2c(S(=O)(=O)O)cc3cc(S(=O)(=O)O)c(N=Nc4ccc(C5(c6ccc(N=Nc7ccc(N)cc7O)cc6)CCCCC5)cc4)c(N)c3c2O)cc1` [Example 5], the “Solubility Dye(g)/water (100 g)” value in data set [1] is on record as 13 g of dye/100 g of water. Also, in data set [1], the “Solubility Evaluation” value is given as “.smallcircle. (solubility is within a range from 10 to 15)”. Further, the fold induction in data set [2] (s9, TA98, with S9, 20 μg/plate) stood at 1.77; in data set [2] (s9, TA98, with S9, 78 μg/plate), 1.27; in data set [2] (setting [3]), 1.41; in data set [2] (setting [4]), 1.45; in data set [2] (setting [5]), 1.05; in data set [2] (setting [6]) it was 0.9. The fold induction in data set [2] (setting [7]) amounted to 0.76; in data set [2] (setting [8]), 1.07; in data set [2] (setting [9]) it was 0.83; in data set [2] (setting [10]), 0.48. For the same compound, in the data set on strain TA98, the “AMES Evaluation” value is listed as “Negative (When the resulting magnification is not more than 2, it is evaluated as "negative")”.
Turning to `Cc1ccc(N=Nc2c(S(=O)(=O)O)cc3cc(S(=O)(=O)O)c(N=Nc4ccc(C5(c6ccc(N=Nc7ccc(N)cc7O)cc6)CCCCC5)cc4)c(N)c3c2O)cc1` [Example 6], the “Solubility Dye(g)/water (100 g)” value in data set [1] is 15 g of dye/100 g of water. Moreover, the “Solubility Evaluation” value in data set [1] is on record as “.circleincircle. (solubility is not less than 15)”. In addition, the fold induction in data set [2] (s9, TA98, with S9, 20 μg/plate) worked out at 1.38; in data set [2] (s9, TA98, with S9, 78 μg/plate) it was 1.43; in data set [2] (setting [3]), 0.95; in data set [2] (setting [4]) it was 0.68; in data set [2] (setting [5]), 0.65; in data set [2] (setting [6]) it was 1.19. Moreover, the fold induction in data set [2] (setting [7]) was determined as 1.22; in data set [2] (setting [8]), 1.48; in data set [2] (setting [9]), 1.3; in data set [2] (setting [10]), 1.15. In the data set with strain TA98, the “AMES Evaluation” value is “Negative (When the resulting magnification is not more than 2, it is evaluated as "negative")”.
Turning to `CCCCc1ccc(N=Nc2c(S(=O)(=O)O)cc3cc(S(=O)(=O)O)c(N=Nc4ccc(C5(c6ccc(N=Nc7ccc(N(CC)CC)cc7C)cc6)CCCCC5)cc4)c(N)c3c2O)cc1` [Example 7], in data set [1], the “Solubility Dye(g)/water (100 g)” value is on record as 12 g of dye/100 g of water. Also, in data set [1], the “Solubility Evaluation” value was “.smallcircle. (solubility is within a range from 10 to 15)”. The fold induction in data set [2] (s9, TA98, with S9, 20 μg/plate) was 1.03; in data set [2] (s9, TA98, with S9, 78 μg/plate), 0.92; in data set [2] (setting [3]) it was 0.81; in data set [2] (setting [4]) it was 1.08; in data set [2] (setting [5]) it was 1.03; in data set [2] (setting [6]), 1.05. The fold induction in data set [2] (setting [7]) is 1.1; in data set [2] (setting [8]) it was 0.9; in data set [2] (setting [9]) it was 0.62; in data set [2] (setting [10]), 1.1. In the data set with strain TA98, the “AMES Evaluation” value was “Negative (When the resulting magnification is not more than 2, it is evaluated as "negative")”.
With `CCCCc1ccc(N=Nc2c(S(=O)(=O)O)cc3cc(S(=O)(=O)O)c(N=Nc4ccc(C5(c6ccc(N=Nc7ccc(N(C)C)cc7C(=O)O)cc6)CCCCC5)cc4)c(N)c3c2O)cc1` [Example 8], the “Solubility Dye(g)/water (100 g)” value in data set [1] was 15 g of dye/100 g of water. Moreover, in data set [1], the “Solubility Evaluation” value is listed as “.circleincircle. (solubility is not less than 15)”. For the same compound, the fold induction was 1.13 in data set [2] (s9, TA98, with S9, 20 μg/plate); 0.94 in data set [2] (s9, TA98, with S9, 78 μg/plate); 1.06 in data set [2] (setting [3]); 0.53 in data set [2] (setting [4]); 0.59 in data set [2] (setting [5]); 0.76 in data set [2] (setting [6]). Moreover, the fold induction came to 0.86 in data set [2] (setting [7]), 0.86 in data set [2] (setting [8]), 0.76 in data set [2] (setting [9]) and 0.71 in data set [2] (setting [10]). Also, the “AMES Evaluation” value in the data set with strain TA98 is listed as “Negative (When the resulting magnification is not more than 2, it is evaluated as "negative")”.

The record behind these values is patent US5486601A, “Trisazo dye, and aqueous ink composition containing the same” (priority 1993, dated 1996).
